Patent US20110229499A1, “METHOD FOR TREATMENT OF VASCULAR HYPERPERMEABILITY” (priority 2010, published 2011)

System: Rat lung microvascular endothelial cells
Assay: Adherens junction damage, beta catenin immunofluorescence
Type: cell-based
Details: SCF 100 ng/ml pre-treatment 1 hour
Experimental: Rat lung microvascular endothelial cells were grown on fibronectin coated chamber slides in complete MCDB-3 media for 24 hours. The cells were pre-treated with SCF (100 ng/ml) for 1 hour. The cells exposed to shock serum or were transfected with caspase-3 (5 μg/ml) for 60 minutes. Caspase-3 were exposed to TransIT (10 μl/ml) for 15 minutes before exposure to the cells. The cells were washed in PBS, permeabilized with Triton X-100 and fixed with 4% paraformaldehyde. The cells were then washed in PBS, blocked with 2.5% BSA-PBS and exposed to polyclonal antibody against β-catenin overnight at 4° C. The cells were washed, mounted in an antifade-DAPI mountant and visualized utilizing a fluorescent microscope.

Substance: SCF: stem cell factor, a soluble factor (protein) produced by stem cells
- caspase-3 mediated adherens junction disruption (caspase-3 5 μg/ml transfected 60 minutes): did not protect
- shock serum-induced adherens junction disruption (shock serum 60 minutes): showed protection
